The values that follow come from patent publication US4238495A, “1-(4-Cyano-phenoxy)-2-hydroxy-3-[2-(5-1H-tetrazolyl )-chromon-5-yloxy]-propane and salts thereof” (Miles Laboratories, Inc., priority 1976, dated 1980).

Data set [1] is described as follows: in vivo. To be noted: rat. From the text:
(§1) In the following table, ID50 is the dose which reduced the diameter of the wheal by 50% when injected intravenously together with the antigen. LD50 is the intravenous dose that caused death in 50% of the test animals. Therapeutic index is the ratio, LD50/ID50. The reference compounds utilized were: disodium chromoglycate (DSCG); 1-(phenoxy)-2-hydroxy-3-[2-(5-1H-tetrazolyl)-chromon-5-yloxy]-propane; 1-(4-chloro-phenoxy)-2-hydroxy-3-[2-(5-1H-tetrazolyl)-chromon-5-yloxy]-propane; 1-(4-hydroxy-phenoxy)-2-hydroxy-3-[2-5-1H-tetrazolyl)-chromon-5-yloxy]-propane; 1-(4-propyl-phenoxy)-2-hydroxy-3-[2-5-1H-tetrazolyl)-chromon-5-yloxy]-propane; and sodium 1-(4-cyano-phenoxy)-2-hydroxy-3-(2-carboxy-chromon-5-yloxy)-propane.

Data set [2] relates to passive cutaneous anaphylaxis (skin wheals, egg albumin antigen). As to the kind of experiment: passive cutaneous anaphylaxis (PCA) test, egg albumin as the antigen, i.v. To be noted: dose that reduced wheal diameter by 50%, injected i.v. together with antigen, rat PCA; for ED50: iv, read-out: ID50 (i.v.). Format: in vivo. The protocol: (§2) Compounds described in above examples 3 and 4 were evaluated for anti-allergic activity in the rat by the passive cutaneous anaphylaxis test (hereafter PCA), utilizing egg albumin as the antigen.
The intensity of such PCA reactions is assessed by measuring the diameters of wheals which develop in the skin of the test animals. Details of the PCA test can be found in the following references: I. Mota, Life Sciences, 1: 465 (1963); and B. Ogilvie, Immunology, 12: 113 (1967).
as §1

Data set [3] in a line: in vivo. To be noted: rat, in vivo, iv. The protocol: as §2, §1
The test system of data set [4] is passive cutaneous anaphylaxis (skin wheals, egg albumin antigen). As to the kind of experiment: therapeutic index, LD50/ID50 (i.v. lethality over PCA). The protocol: as §2, §1
Where [5] appears, read: iv, LD50 (i.v.), i.v. dose that caused death in 50% of test animals.
The mark [6] stands for this setting: THERAPEUTIC INDEX, ratio LD50/ID50.

On to `O=c1cc(-c2nnn[nH]2)oc2cccc(OCC(O)COc3ccc(O)cc3)c12` (stereo not drawn) [Augstein OH], for which the 50% lethal dose (LD50) (as a rule, the dose at which mortality reaches 50%) in the data set “in vivo [1]” (setting [5]) fell in the range of 1260 to 4950 µmol/kg. In data set [2], the ED50 was 0.675 µmol/kg. In addition, the selectivity ratio in “in vivo [3]” (setting [6]) is 1870 to 7480.
For `CCCc1ccc(OCC(O)COc2cccc3oc(-c4nnn[nH]4)cc(=O)c23)cc1` (stereo not drawn) [Augstein C3 H7], in the data set “in vivo [1]” (setting [5]), the LD50 was over 493 µmol/kg. Further, the ED50 in data set [2] was over 25 µmol/kg. In addition, the selectivity ratio in the data set “in vivo [3]” (setting [6]) was over 19.7.
In the case of `O=C(O)c1cc(=O)c2c(OCC(O)COc3cccc4oc(C(=O)O)cc(=O)c34)cccc2o1` [DSCG, disodium chromoglycate], in the data set “in vivo [1]” (setting [5]), the LD50 came out at 1950 µmol/kg. Also, the ED50 in data set [2] came out at 1.7 µmol/kg. In addition, the selectivity ratio in “in vivo [3]” (setting [6]) was determined as 1150.
In “in vivo [1]” (setting [5]), `O=c1cc(-c2nnn[nH]2)oc2cccc(OCC(O)COc3ccccc3)c12` (stereo not drawn) [Augstein H, 1-(phenoxy)-2-hydroxy-3-[2-(5-1H-tetrazolyl)-chromon-5-yloxy]-propane] registered an LD50 of over 1050 µmol/kg. In addition, the ED50 in data set [2] is 2.25 µmol/kg. Besides, the selectivity ratio in the data set “in vivo [3]” (setting [6]) is over 467.
As for `N#Cc1ccc(OCC(O)COc2cccc3oc(-c4nnn[nH]4)cc(=O)c23)cc1` (stereo not drawn) [compound 4, SODIUM 1-(4-CYANOPHENOXY)-2-HYDROXY-3-[2-(5-1H-TETRAZOLYL)CHROMON-5-YLOXY]-PROPANE], the “ID50 (i.v.)” value in data set [2] came to 0.075 µmol/kg. Also, in data set [4] (versus any of the prior art compounds), the “therapeutic index compared with prior art compounds” value is “still more superior than any of the prior art compounds”.
For `N#Cc1ccc(OCC(O)COc2cccc3oc(C(=O)O)cc(=O)c23)cc1.[Na]` (stereo not drawn), the LD50 in “in vivo [1]” (iv, LD50 (i.v.)) came out at 2380 µmol/kg. In the data set “in vivo [3]”, the selectivity ratio amounted to 3170.
Consider `O=c1cc(-c2nnn[nH]2)oc2cccc(OCC(O)COc3ccc(Cl)cc3)c12` (stereo not drawn) [Augstein Cl, 1-(4-chloro-phenoxy)-2-hydroxy-3-[2-(5-1H-tetrazolyl)-chromon-5-yloxy]-propane], for which, in “in vivo [1]” (in vivo), the LD50 was over 1.8 µmol/kg. For the same compound, in data set [2], the ED50 was determined as 1.8 µmol/kg. For the same compound, the selectivity ratio in the data set “in vivo [3]” is over 1.
`N#Cc1ccc(OCC(O)COc2cccc3oc(-c4nnn[nH]4)cc(=O)c23)cc1` (stereo not drawn) [Ex. 3, 1-(4-CYANO-PHENOXY)-2-HYDROXY-3-[2-(5-1H-TETRAZOLYL)CHROMON-5-YLOXY]-PROPANE] yielded an LD50 in “in vivo [1]” (setting [5]) of over 1180 µmol/kg. Further, in data set [2], the ED50 was determined as 0.075 µmol/kg. Further, in data set [4] (rat, in vivo), the “therapeutic index, times greater than the nearest conger disclosed in Warren” value is recorded as “about 5 times”. Also, in data set [4] (versus DSCG), the “therapeutic index, times greater than DSCG” value is given as “about 15 times”. The selectivity ratio in “in vivo [3]” (setting [6]) was over 15800.
